Series [1] concerns CHO cells. Kind of series: CHO chromosomal aberration test. The series is classed as cell-based, Chinese Hamster. The following applies: with and without metabolic activation. As to the method: XMP.629 was next evaluated for activity to induce chromosomal aberrations in cultured CHO cells with and without an exogenous metabolic activation system. […] The assay design for these chromosomal aberration studies was based on OECD Guideline 473, updated and adopted Jul. 21, 1997. XMP.629 was provided as a 20.0 mg/mL stock in 10 mM sodium acetate buffer (pH 6). This solution and its dilutions prepared in cell culture grade water were dosed at 10% vol/vol (100 pUL/mL). The vehicle control cultures were treated with 100 μL/mL of cell culture grade water. In the initial assay, the treatment period was for 3.0 hours with and without metabolic activation at various concentrations of XMP.629 (30, 60, 120, 240, 480, 686, 980, 1400 and 2000 μg/mL) and cultures were harvested 20.0 hours from the initiation of treatment. Those cultures that were treated with 30, 60 and 120 pg/mL were analyzed for chromosomal aberrations. No significant increase in cells with chromosomal aberrations, polyploidy or endoreduplication was observed. In a confirmatory assay that included lower doses, the treatment period was 20 hours without metabolic activation (3.75, 7.5,15, 30, 60, 90, 120, 160, 200 and 240 μg/mL) and 3 hours with metabolic activation (15, 30, 60, 90, 120, 160, 200, 240, 300 and 360 μg/mL). […]

The subject of series [2] is Macrococcus caseolyticus. To be noted: Macrococcus caseolyticus 29750.
In series [3] the test system is Staphylococcus aureus. The following applies: for MBC: agent alone.
Series [4] concerns Streptococcus mutans. In words: MIC, panel of human pathogens, standardized NCCLS protocols. The series is classed as cell-based. The following applies: Streptococcus mutans 25175.
Series [5] relates to Propionibacterium acnes. The following applies: Propionibacterium acnes 6919.
Series [6] relates to marginal ear vein of rabbits. In words: Intravenous efficacy tests in rabbits (local vein findings). The series is classed as in vivo, rabbit. The following applies: multiple infusions, 1-20 mg/kg/day. As to the method:
A series of efficacy studies with XMP.629 was conducted where slow IV push or short term (5 to 30 min) intravenous infusions were given through the marginal ear vein at 0.1 to 1.0 mg/mL to rabbits, some of whom were previously infected with Staphylococcus aureus, E. coli, or other bacteria, or Candida albicans. […] Due to the swelling, the veins could not be infused after two to five administrations of 1-20 mg/kg/day of XMP.629. […] Secondary changes in the surrounding tissue included edema, regional fibroplasia, acute hemorrhage, and regional hemorrhagic necrosis, as well as the presence of inflammation. These macroscopic changes were similar to the changes observed in the tail veins of rats and mice in other efficacy studies conducted.

Series [7] deals with Streptococcus sobrinus. To be noted: Streptococcus sobrinus 27607.
In series [8] the test system is E. coli 0111 :B4 lipopolysaccharide challenge in CD-1 mice. In words: Murine model of endotoxemia (survival). The series is classed as in vivo. To be noted: 0.65 mg/kg intravenously; 25 mg/kg LPS; seven days. As to the method: This example addresses studies relating to additional activities of XMP.629, including its known endotoxin-related activities. […] For these studies, groups of 15 male CD-1 mice were challenged with 25 mg/kg E. coli 0111 :B4 lipopolysaccharide via tail vein injection. Immediately following endotoxin challenge, mice were treated intravenously with XMP.629 at 0.07, 0.2, 0.65 mg/kg or saline. Animals were observed twice daily and mortality was recorded for seven days.

For series [9], the system named is conscious telemetered cynomolgus monkeys. Kind of series: Cardiovascular safety pharmacology test, intravenous infusion, telemetry. The series is classed as in vivo, cynomolgus monkey. As to the method:
This safety pharmacology test was performed to assess the possible cardiovascular effects of XMP.629 when administered via intravenous infusion. The test was an acute experiment to identify single-dose-induced side-effects as indicated, for example, in the Guideline for General Pharmacology Studies (Japan Ministry of Health and Welfare PAB/NND Notification No. 4, Jan. 29, 1995, the disclosure of which is incorporated herein by reference).
A telemetry device/transmitter (Data Sciences, St. Paul, Minn.) was surgically implanted in the subcutaneous pocket over the mid-abdominal region into the test monkeys. The blood pressure catheter of the telemetry device was run sub-cutaneously to the left groin region and inserted into the left femoral artery, with the catheter tip placed into the abdominal aorta. In addition, electrocardiogram leads were sub-cutaneously tunneled to the appropriate anatomical regions (i.e. negative lead paced at the base of the right side of the neck and the positive lead placed within the 5th intercostals space on the left side of the thoracic cage, near the sternum).
Intravenous administration of XMP.629 was given to conscious cynomolgus primates (four males) via telemetry systems in a series of 4 acute experiments, in which escalating doses were administered over four days, with a 3 to 27-day washout period between doses. Doses were administered over a two-hour period, at a rate of 2 mL/kg/hr. The vehicle, 10 mM sodium acetate buffer, was administered on Day 0, and XMP.629 at dose levels of 5, 10, and 20 mg/kg/2 hrs on days 4, 7, and 34, respectively. The infused volume per dose was calculated using the most recent body weight measurements.
Viability checks were performed twice daily on the animals. Body weights were obtained from the animals on the day of surgery and one or two days prior to each dose. Cardiovascular assessments and body temperature measurements were collected radiotelemetrically using the implanted telemetry device/transmitter for one 24 hour period prior to the Day 0 dosing session at the same frequency/periods collected on the days of dosing. On each day of dosing, the effect of XMP.629 on various physiological parameters, such as blood pressure waveform, systolic pressure, diastolic pressure, mean pressure, ECG (axial lead) waveform, heart rate, body temperature, QA interval, P-R interval, QRS interval, QT interval, R—R interval, and QTC interval, was observed two hours before the dosing period, every five minutes for 120 minutes during each infusion period, and for 22 hours after termination of infusion (once every five minutes for one hour and then once every 30 minutes for the remaining 21 hours). […]

For series [10], the system named is Corynebacterium. Kind of series: microbe, parasite or virus in culture. The series is classed as cell-based.
Procedure: Control tubes containing only water or formulation buffer were prepared for each isolate. Initial growth controls were determined by removing 10 μL from the water control tube and diluting it by 100 fold. From this dilution, 10 μL was used for inoculation and for spreading over the surface onto Laked Blood Agar (LBA) (Anaerobe Systems, Morgan Hill, Calif.) plates. The tubes and plates were incubated in an anaerobic atmosphere at 37° C. for 48 h. […] MBC50 and 90 values represent where 50 and 90%, respectively, of the tested strain's MBC values are equal to or less than the indicated concentration.

≈ marks a conversion by molar mass, not a printed value. Like-named read-outs stand apart in the source and are kept apart here. Non-standard residues stand in square brackets, D forms with d. Residues, ends and D or L forms follow the SMILES beside them. d1Nal = N[C@H](Cc1cccc2ccccc12)C(=O)O

In the case of `CC(C)C[C@@H](NC(=O)[C@H](N)CCCCN)C(=O)N[C@H](Cc1ccccc1)C(=O)N[C@H](CCCNC(=N)N)C(=O)N[C@H](Cc1cccc2ccccc12)C(=O)N[C@H](CCC(N)=O)C(=O)N[C@H](C)C(=O)N[C@H](CCCCN)C(=O)N[C@H](Cc1cccc2ccccc12)C(N)=O` [XMP.629, NH2-lys-leu-phe-arg-(3-(1-naphthyl)-ala)-gln-ala-lys-(3-(1-naphthyl)-ala)-CONH2] (H-[dK][dL][dF][dR][d1Nal][dQ][dA][dK][d1Nal]-NH2), in [1], the “chromosomal aberrations in CHO cells” value is “negative”. The “Minimum Inhibitory Concentrations” value was 2.00 µg/mL in series [2], “≦1 μg/mL” in [4], 1.00 µg/mL in series [5] and 2.00 µg/mL in series [7]. Also, the MBC in [3] (Staphylococcus aureus 076U-550) came to 8 µg/mL (≈ 6.23 µM); in [3] (Staphylococcus aureus 230U-579) it was 8 µg/mL (≈ 6.23 µM); in series [3] (Staphylococcus aureus 314U-148), 8 µg/mL (≈ 6.23 µM); in series [3] (Staphylococcus aureus 342U-116), 8 µg/mL (≈ 6.23 µM); in series [3] (Staphylococcus aureus 15031-1857), 4 µg/mL (≈ 3.12 µM). In addition, the “XMP.629 MBC” value in series [3] (Staphylococcus aureus 342U-116, XMP.629 alone) is 8 µg/mL. In series [6], the “gross macroscopic changes at the infused vein” value was “swelling and hemorrhage into the perivascular space”. Moreover, the “survival in endotoxin-challenged mice” value in series [8] is “complete protection”. Moreover, in series [9] (20 mg/kg/2 hrs), the “Prolongation in prothrombin and activated partial thromboplastin times with decreases in fibrinogen” value is listed as 2 of 4 animals. In [9] (5, 10, or 20 mg/kg/2 hrs), the “heart rate, QA, P-R, QRS, and R-R intervals” value is on record as “no effects”. In addition, the cardiac findings entry in series [9] (10 or 20 mg/kg/2 hrs) is “ventricular extrasystoles and premature ventricular beats”. In addition, in [9] (cynomolgus monkey, in vivo, iv), the “intravenous infusion dose with no adverse, related-effect” value worked out at 5 mg/kg/2 hrs. Besides, the “MIC90, XMP.629 data reported as MBC values” is 0.25 µg/mL (≈ 0.195 µM) in [10] and below 0.25 µg/mL in series [10] (in FB (formulation buffer)).

These data come from patent publication US20050148495A1, “Methods and materials including for treating acne” (priority 2003, published 2005).
